Assay: gradient 5% acetonitrile 3 min, to 50% in 2 min, to 85% in 15 min, held 3 min, 100 µL/min
Conditions: column: Zorbax Extend-C18 2.1 x 50 mm; eluents: water / acetonitrile, 0.1% formic acid
Method in brief: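 Mixtures of ~100 pure standards were chromatographed on a Zorbax Extend-C18 column (2.1 × 50 mm, 1.8 μm) at 100 μL/min using water and acetonitrile, each with 0.1% formic acid. Detection used a quadrupole time-of-flight mass spectrometer in positive and negative ionization mode, and data collection spanned 3 months. Retention time was obtained from adduct peaks picked computationally and each checked manually.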

RP-LC retention time [s]	SMILES
996	CC1(C)CC(=O)C2=C(C1)N(Cc1ccco1)C(=O)C2(NC(=O)CCc1ccccc1)C(F)(F)F (centres undefined)
796	COc1cccc(-c2cc3c(=O)n(CC(O)c4cccc(C#N)c4)ccn3n2)c1 (centres undefined)
588	CCOCCCNC(=O)c1ccc2c(c1)nc1n2CCCCC1
1050	N#Cc1ccc(C(=O)Nc2cnc(-c3cccc(Cl)c3)nc2)cc1
832	Cc1cc(Cl)ccc1NC(=O)C1CCCN1S(=O)(=O)c1cc2c(cc1C)NC(=O)CO2 (centres undefined)
624	Cc1noc(C)c1S(=O)(=O)N1CCC(Cc2nc(-c3cccnc3)n[nH]2)C1 (centres undefined)
728	O=c1[nH]c2ccc(NCc3cccc(Cl)c3Cl)cc2[nH]1
814	Cn1c(=O)n(C)c2cc(S(=O)(=O)C3CCCCC3)c(NC(=O)C3CC3)cc21
1120	Cc1ccc(C)c(CNC(=O)c2ccc(-c3nc4cccnc4n3C3CCCCC3)cc2)c1
1010	COc1cc(-c2noc(C3CC(=O)N(c4cccc(Cl)c4)C3)n2)cc(OC)c1OC (centres undefined)
563	CN(CCc1ccccn1)C(=O)c1cn2ccnc(-c3ccccc3)c2n1
618	CCNC(=O)c1cc(C(C)C)[nH]n1
1080	Cc1ccc(-c2noc(C3CCCN3C(=O)C3CCN(S(=O)(=O)c4ccc(C)cc4)CC3)n2)cc1 (centres undefined)
616	Cc1nnc2c(=O)n(CC(=O)N3CCCCC3)c3cccnc3n12
1170	CS(=O)(=O)NC(=O)c1cc(Cl)c(COc2ccc(Cl)c(Cl)c2)cc1F
809	CCc1ccc(N2C(=O)CN(S(C)(=O)=O)CC2(C)C(=O)NCc2ccccc2)cc1 (centres undefined)
616	CN(C)C(=O)c1ccc2c(c1)nc(CN(C)C(=O)Nc1ccc(Cl)cc1)n2C
1150	Cc1sc(NC(=O)c2cccc(F)c2)nc1-c1ccccc1
1190	CC(C)c1csc(-c2csc(S(=O)(=O)NCc3ccc(Br)cc3)c2)n1
638	COc1ccc(CCS(=O)(=O)NCC2CCN(C(=O)c3cccn(C)c3=O)CC2)cc1
988	Cc1cc(C)cc(NC(=O)c2cnc(-c3ccccc3)nc2-c2ccncc2)c1
636	CCn1c(C(=O)N2CCN(c3ccccn3)CC2)cc2sccc21

RP-LC retention time [s]	SMILES
640	Cc1ccc(Nc2nc(C)cc3nn(CC(=O)NC4CCCC4)c(=O)n23)cc1
1000	Cc1cc(=O)n(CC(=O)Nc2ccccc2F)c(-c2ccccc2)n1
1420	COC(=O)c1ccc2c(=O)n(-c3cc(C)cc(C)c3)c(N3CCC(C)CC3)nc2c1
1000	COc1ccc(-c2nc(-c3nnn(-c4ccccc4)c3C)no2)c(OC)c1
862	O=C(c1cc2ccccc2[nH]1)N1CC2CN(S(=O)(=O)c3cccc(F)c3)CC(C1)O2
748	O=C1NCCOCCN(S(=O)(=O)c2cccc(F)c2)[C@H]2CCC[C@@H]12
586	CCC(=O)Nc1ccc2c(c1)nc(CN1CCN(S(C)(=O)=O)CC1)n2CC
773	CCNC(=O)CCc1nc2ccccc2n(CC(=O)NCCc2ccc(Cl)cc2)c1=O
623	COc1ccc(N2CCN(C(=O)c3cc4c(s3)CN(C3CCCC3)C4)CC2)cc1
907	c1ccc(-c2nc3nccc(-c4ccccc4)n3n2)cc1
707	O=C(Cc1cccs1)Nc1nnc(Cc2ccc(F)cc2)o1
688	N#Cc1cccc(Cn2c(-c3nc(-c4ccccc4)no3)cccc2=O)c1
1060	O=c1ccc(-c2ccc3c(c2)OCO3)nn1CCc1nc(-c2cccc(Br)c2)no1
682	O=C(c1cncc(Br)c1)N1CCC(c2nnc(-c3ccco3)s2)CC1
950	O=C(Cn1cccc1-c1nnc(-c2ccccc2)o1)NCCc1ccccc1
934	COc1ccc(OCC(=O)N2CCCC2c2nc(-c3ccc(OC)cc3)no2)cc1 (centres undefined)
526	COc1cccc(-c2cc3n(n2)CCCN(Cc2cccnc2)C3)c1
634	O=C1CCC2(CNC(=O)c3n[nH]c(=O)c4ccccc34)CCCC=C2N1 (centres undefined)
862	O=C(CCn1nnc2cc(-c3noc(COc4ccccc4)n3)ccc21)N1CCCC1
936	O=C(CCC1CCCN(S(=O)(=O)c2cccc(F)c2)C1)NC1CCCCC1 (centres undefined)
1130	CCOC(=O)c1c(C)oc2nc(C)nc(N3CCC(c4ccccc4)C3)c12 (centres undefined)
767	Cc1cccc(CNC(=O)C2(C)Cn3cnc(C(=O)NC4CCCC4)c3C(=O)N2C2CC2)c1 (centres undefined)

RP-LC retention time [s]	SMILES
765	CN1C(=O)Cc2cc(C(=O)N3CCN(c4ccccc4F)CC3)ccc21
1000	CCN(Cc1ccccc1)C(=O)Cn1nc(C)c2sc(-c3ccccc3)nc2c1=O
627	CC(=O)c1ccc(NC(=O)N2C[C@@H]3C[C@H](NC(=O)c4cccnc4)[C@H]2C3)cc1
849	Fc1ccc(CN2CCCCC2c2nc(-c3cnccn3)no2)cc1F (centres undefined)
561	COC(=O)c1ccc(NC(=O)CN2CC(c3nc(-c4cnccn4)no3)C2)cc1
553	Cc1cc(NC(=O)CSc2nnc(CCc3nc4ccccc4[nH]3)o2)no1
727	Cc1ccccc1Nc1c(-c2cccc(O)c2)nc2ccc(Br)cn12
579	Cc1cc(C(=O)N2CCCC2c2nncn2C(C)C)n[nH]1 (centres undefined)
932	CC(CNC(=O)c1nc(Cn2c(=O)oc3ccccc32)no1)c1ccccc1 (centres undefined)
578	COc1ccc(Cl)cc1C(=O)N1CCN=C1SCc1cccnc1
669	Cc1ccnc(N2CCC(C(=O)NC3CCCCC3)CC2)n1
629	CC1Cc2ccccc2N1C(=O)c1ccc(=O)n(CCC(=O)N2CCN(c3ccccn3)CC2)n1 (centres undefined)
733	O=C(Nc1nnc(-c2ccc(Cl)s2)o1)c1ccc2ncsc2c1
1320	CC(C)Oc1ccc(CNS(=O)(=O)c2cc(-c3nc(C(C)(C)C)cs3)cs2)cc1
590	CCN(CC)CCNC(=O)C1(O)c2cc(Br)ccc2NC(=O)N1c1cccc(OC)c1 (centres undefined)
932	Cn1nccc1C(=O)NCc1ccc(-c2nc(-c3ccccc3)no2)s1
730	CS(=O)(=O)N1CCC(OC2CCN(C(=O)NCc3cccc(F)c3)CC2)CC1
620	CCOC(=O)c1nc2cc(OC)c(OC)cc2[nH]c1=O
766	COc1cncc(C(=O)Nc2cc(F)ccc2Cl)c1
760	Cc1nn(-c2ccccc2)c2c1C(c1ccc([N+](=O)[O-])cc1)C(C#N)=C(N)O2 (centres undefined)
729	CC(C)CNC(=O)c1cc(=O)[nH]c2ccccc12
968	COc1ccc(OC)c(Nc2c(-c3ccc(Cl)cc3)nc3cnccn23)c1

RP-LC retention time [s]	SMILES
750	Cn1cc(C(=O)N2CCCC2Cc2noc(C3CCCC3)n2)cn1 (centres undefined)
833	CCCc1noc(-c2ccc(-n3ncc(C(=O)N4CCOCC4)c3C)nc2)n1
609	COCc1nc(CCNC(=O)C2CCC2)no1
896	CC(C)n1c(=O)sc2cc(S(=O)(=O)N3CCC(C(=O)NC4CCCC4)CC3)ccc21
678	CCSc1nnc(NC(=O)Cc2csc(NC(=O)c3cnccn3)n2)s1
656	O=C(NCC(F)(F)F)C1CCN(C(=O)NCc2ccccc2)CC1
686	Cc1nn(-c2cc(N3CCCC3)ncn2)c(C)c1CCC(=O)NCc1ccco1
778	CCOc1ccc(-c2ccc(C)c(NC(=O)c3ccc(S(=O)(=O)N(C)C)cc3)c2)nn1
980	COC(=O)c1ccc(-c2nc3cnccn3c2Nc2cccc(C)c2C)cc1
921	CCCn1cc(S(=O)(=O)Nc2ccc(C)c(F)c2)c2cccnc21
853	Cc1ccc2c(c1)N(C(=O)Cn1ccc3ccn(Cc4ccccc4)c3c1=O)CCO2
659	CC1=C(C(=O)N2CCOCC2)C(c2cc(Br)ccc2F)C2=C(CCCC2=O)N1 (centres undefined)
823	COc1cc(CNC(=O)c2cnc(-c3ccccc3)nc2-c2ccncc2)cc(OC)c1
626	CCNc1cc(N2CCC(CCC(=O)N3CCN(c4ncccn4)CC3)CC2)ncn1
915	COc1ccc(N2CCN(CC(=O)Nc3ccc4c(c3)Cc3ccccc3-4)C2=O)cc1
765	Cc1cc(NC(=O)CN2C(=O)CN(C)C(=O)c3ccccc32)ccc1Br
578	CCN(CC)CCNC(=O)CCC(=O)N1CCc2c(c(C(=O)N3CCCC3)nn2C)C1
731	O=C(Nc1ccc2c(c1)OCCO2)N1CCN(Cc2ccccc2)c2ncccc21
786	CCn1cc(C(CNC(=O)Nc2cccc(SC)c2)c2cccnc2)c2ccccc21 (centres undefined)
948	COc1ccc(-c2ncc3c(n2)CCN(C(=O)c2ccccc2Br)C3)cc1
958	Cc1nn(-c2ccccc2)c(C)c1S(=O)(=O)N1CCC(C(=O)Nc2cccc(C#N)c2)CC1

SMILES	RP-LC retention time [s]
COc1ccc(-c2cn3c(CC(=O)N4CCN(Cc5ccccc5)CC4)csc3n2)cc1OC	596
COc1ccc2c(c1)C1(CCN(C(=O)CCc3ccccc3)C1)C(=O)N2C (centres undefined)	850

Source: the METLIN SMRT retention time set (Domingo-Almenara et al. 2019)
